Columns and labels:
[1] = test system: active (GTP-bound) Cdc42 in MDA-MB-231 cells; assay: Assay of active Cdc42 (GST-WASP-GBD pulldown); type: cell-based, human; conditions: 50 µM for 2 h, 100 ng/mL EGF 10 min
Method: The GST-WASP-GBD (GTPase-binding-domain) has been described previously. Briefly, GST-WASP-GBD was generated by polymerase chain reaction, digested, and ligated into a pGEX-KG vector[52]. Following expression of the GST fusion protein in E. coli, purification was performed by glutathione-Sepharose affinity chromatography. MDA-MB-231 cells were grown in DMEM with 10% FBS to 60% confluence. After 2 h, 100 ng/mL EGF or vehicle was added for 10 min. After washing with 1xPBS, cells were lysed in lysis buffer (20 mM Hepes, pH 7.4, 150 mM NaCl, 1% NP-40, 20 mM NaF, and 20uM GTP, containing halt protease & phosphatase inhibitor cocktail (Thermo Scientific #1,861,281). Lysates were precleared with glutathione-Sepharose for 1 h at 4 °C and equal amounts of protein was incubated with either GST (control) or GST-WASP-GBD for 2 h at 4 °C. Complexes were collected with glutathione-Sepharose and washed 5× with lysis buffer. Bound proteins were resolved by SDS-PAGE and transferred to a polyvinylidene difluoride membrane. The membrane was cut immediately below the 37 kDa molecular weight marker. The top portion of the membrane was discarded and the bottom portion was probed with anti-Cdc42 antibody (BD Transduction Laboratories #610929). Aliquots of whole cell lysate were processed in parallel. […] The intensities of the Cdc42 and tubulin bands were quantified using Image Studio (LI-COR Biosciences).

[2] = biological target: T1, GST-IQGAP1-C / His-Cdc42-Q61L (Homo sapiens, UniProt P46940); assay: HTRF IQGAP1-Cdc42 binding assay (validation / confirmatory); conditions: 50 nM His-Cdc42-Q61L, 1.5 nM GST-IQGAP1-C
T1 construct: the C-terminal half of IQGAP1 (comprising amino acids 864–1657) containing a GST-tag; made in house; host or cells: Escherichia coli (BL-21 for GST-IQGAP1-C)
T1 sequence (P46940 864-1657): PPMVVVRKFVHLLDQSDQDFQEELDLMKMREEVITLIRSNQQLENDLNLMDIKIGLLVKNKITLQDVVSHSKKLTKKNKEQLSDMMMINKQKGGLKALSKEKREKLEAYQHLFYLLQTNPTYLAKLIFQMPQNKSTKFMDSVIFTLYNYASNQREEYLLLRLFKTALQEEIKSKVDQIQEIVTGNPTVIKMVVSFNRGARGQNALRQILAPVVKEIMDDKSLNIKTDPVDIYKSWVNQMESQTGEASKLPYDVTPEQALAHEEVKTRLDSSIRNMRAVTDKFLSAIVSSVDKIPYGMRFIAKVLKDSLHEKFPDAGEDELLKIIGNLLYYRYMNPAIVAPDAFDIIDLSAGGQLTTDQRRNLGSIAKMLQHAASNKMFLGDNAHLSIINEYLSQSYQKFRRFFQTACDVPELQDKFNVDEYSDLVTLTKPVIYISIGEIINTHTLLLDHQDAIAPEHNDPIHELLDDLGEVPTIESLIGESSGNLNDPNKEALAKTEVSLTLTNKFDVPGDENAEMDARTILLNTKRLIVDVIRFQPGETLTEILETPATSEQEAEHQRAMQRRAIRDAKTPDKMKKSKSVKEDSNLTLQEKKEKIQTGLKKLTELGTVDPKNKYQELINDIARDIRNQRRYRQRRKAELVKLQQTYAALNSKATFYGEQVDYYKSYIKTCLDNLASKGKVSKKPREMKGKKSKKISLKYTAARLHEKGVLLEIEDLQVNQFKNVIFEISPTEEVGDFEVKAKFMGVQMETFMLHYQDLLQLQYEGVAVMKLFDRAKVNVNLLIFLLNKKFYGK
Method: Recombinant His-Cdc42-Q61L, GST-IQGAP1-C in combination with acceptor XL665 conjugated anti-His antibody (Anti-His-XL665) and donor Eu-cryptate conjugated anti-GST antibody (anti-GST-cryptate) were used for the HTRF assay to perform a high throughput screening of compound libraries in 1536-well white solid bottom medium-binding plates (Greiner Bio-One).
For the assay, His-Cdc42-Q61L and GST-IQGAP1-C proteins were diluted and pre-mixed in the binding buffer (50 mM Tris, pH 7.5, 150 mM NaCl and 0.01% Triton-X100) to final assay concentrations of 50 nM His-Cdc42-Q61L and 1.5 nM GST-IQGAP1-C. As control, 1.5 nM GST-IQGAP1-C in the absence of His-Cdc42-Q61L was used to gauge the maximal potential inhibition (IC100). Anti-His-XL665 and anti-GST-cryptate antibodies were prepared as threefold concentrated working mixture in binding buffer just prior to dispensing, with final assay concentrations of 5 ng/μL and 0.7 ng/µL, respectively. Pre-mixed proteins (4 µL/well) were dispensed to assay plates with a BioRAPTR FRD™ dispenser. […] The signal was detected immediately with an Envision plate reader (Perkin Elmer) using the HTRF settings (excitation at 340 nm, dual emission at 665 nm and 620 nm). […] The data were calculated as the ratio 665/620 × 10^4 to normalize for any effects in the donor channel. […]

## CCc1ccccc1Nc1ncnc2c1cnn2-c1ccc(Cl)cc1 [NCGC00138812]
[1]
  effect on EGF-induced active (GTP-) Cdc42: did not appreciably reduce activation of Cdc42 by EGF

## Cc1cccc(NC(=O)c2c(NC(=O)C(F)(F)F)sc3c2CCCCC3)c1 [NCGC00098561]
[2]
  EC50: 7.94 µM
[2]; 3 h, read-out: efficacy, HTRF validation assay
  Emax: 84%

## CCN1CCN(c2ncc3c(n2)CCN(Cc2cc(Br)cs2)C3)CC1 [NCGC00131308]
[1]
  effect on EGF-induced active (GTP-) Cdc42: abrogated the increase in GTP-Cdc42 induced by EGF

Source: publication PMC9576799, “Discovery of small molecule inhibitors that effectively disrupt IQGAP1-Cdc42 interaction in breast cancer cells” (Scientific Reports, 2022)
